Reference: patent publication US20230174571A1, “METHOD OF TREATING SHIP1-MEDIATED DISEASES USING PELOROL DERIVATIVES” (Zebrapeutics Inc., priority 2020, published 2023)

System: LPS-stimulated TNFα production
Assay: Measurement of TNFα production in LPS-stimulated SHIP1 KO cells reconstituted with SHIP1
Format: cell-based, mouse
Settings: 10 ng/ml LPS
Experimental: Cell lines. J16 and J17 cell lines derived from SHIP1+/+and −/−BMDM respectively were previously described (Ming-Lum et al., 2012) and cultured in Mac media (IMDM supplemented with 10% (v/v) FCS, 10 μM β-mercaptoethanol, 150 μM monothioglycolate and 1 mM L-glutamine). J17 cells expressing wild type and mutant His6-SHIP1, Clover-SHIP1 or mRuby2-STAT3 constructs were generated by lentivirus mediated gene transfer as described (Cheung et al., 2013). Transduced cells were selected with 5 μg/ml blasticidin. Clover-SHIP1 and mRuby2-STAT3 cells were further subjected to fluorescent activated cell sorting to select the brightest cells on a FACS Aria II cytometer.
Measurement of TNFα production. Cells were seeded at 50×10^4 cells per well in a 96-well tissue culture plate and allowed to adhere overnight. Media was changed the next day 1 hour prior to stimulation. Cells were stimulated with 1 or 10 ng/ml LPS+/−various concentrations of IL10 for 1 hour. Supernatant was collected and secreted TNFα protein levels were measured using a BD OptEIA Mouse TNFα Enzyme-Linked Immunosorbent Assay (ELISA) kit (BD Biosciences, Mississauga, ON). Triplicates wells were used for each stimulation condition. IC50 values were calculated from three independent experiments and differences in IL10 […] values from cells expressing SHIP1 mutants vs SHIP1 WT protein were analyzed by one-way ANOVA.

## IL10: anti-inflammatory cytokine interleukin-10
Cells expressing K681A SHIP1
  TNFα production: not
Cells expressing wild-type SHIP1
  TNFα production: inhibited TNFα production efficiently
